Reference: US20020143059A1, “Skin care product containing retinoids, retinoid booster and phytoestrogens in a dual compartment package” (priority 2000, published 2002)

Key:
ARAT = assay: Assay for ARAT activity, RPE microsomes; format: biochemical, bovine; conditions: for % Inhibition ARAT (100 μm): 100 μm compound; for % Inhibition ARAT (10 μm): 10 μm compound
LRAT = biological target: T1, LRAT (Bos taurus, UniProt Q9BGL2); assay: Assay for LRAT activity, RPE microsomes; format: biochemical, bovine; conditions: for % Inhibition LRAT (100 μm): 100 μm compound; for % Inhibition LRAT (10 μm): 10 μm compound
T1 construct: followed by approximately 15 μg of RPE microsomal protein; tissue W. L. Lawson Co., Lincoln, Nebr; host or cells: bovine retinal pigment epithelium microsomes
T1 sequence (Q9BGL2 1-230): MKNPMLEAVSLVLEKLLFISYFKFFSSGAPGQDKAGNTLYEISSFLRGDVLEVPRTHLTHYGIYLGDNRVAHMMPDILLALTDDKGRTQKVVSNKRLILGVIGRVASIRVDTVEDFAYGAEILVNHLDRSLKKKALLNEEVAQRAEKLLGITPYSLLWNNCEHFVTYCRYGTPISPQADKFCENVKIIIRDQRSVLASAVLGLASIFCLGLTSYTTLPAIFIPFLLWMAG

TGase I = assay: Transglutaminase (TGase I ELISA) assay in cultured keratinocytes; format: cell-based; conditions: booster in combination with a constant retinol concentration of 10^−7M; read-out: Overall TG (IC 50)
CRABP-II = CRABP-II expression in adult fibroblasts (dot blot); format: cell-based, human; conditions: for CRABP-II production: 48 hours; for % as Control: control as 100%
[1] = system: retinoic acid oxidation (cytochrome P450 systems); assay: Assay for NADPH Dependent Retinoic Acid Oxidation, liver microsomes; format: biochemical, rat; conditions: for % Inhibition Retinoic Acid (10 μM): 10 μM compound; for % Inhibition Retinoic Acid (100 μM): 100 μM compound

Compound | % Inhibition ARAT (100 μm) (ARAT) | % Inhibition LRAT (100 μm) (LRAT) | also measured
CCC(=O)/C=C/C1C(C)=CCCC1(C)C (stereo not drawn) [Alpha-Methyl Ionone] | 67% | 77% | 
CC(=O)/C=C/C=C(\C)CCC=C(C)C [Pseudoionone] |  | 37% | 
CC1=CCC(CCC(C)CO)C1(C)C (stereo not drawn) [Brahmanol] | 70% | 75% | 
CCCCCCCCCCCCC/C=C/[C@@H](O)[C@H](CO)NC(C)=O [Acetyl Sphingosine] | 62% +/− 11 | 50% +/− 18 | IC50 (TGase I): 6.78 µM; % Inhibition ARAT (10 μm) (ARAT): 19% +/− 12; % Inhibition LRAT (10 μm) (LRAT): 10% +/− 10
CC(C)=CCCC(C)=CCCC(C)=CCO [Farnesol] | 53% +/− 18 |  | % Inhibition ARAT (10 μm) (ARAT): 23% +/− 18
CC(=O)c1cc2c(cc1C)C(C)(C)[C@H](C)[C@H]2C(C)C [Traseolide] | 41% |  | 
CC(/C=C/C=C(\C)C(=O)O)=C\C=C\C=C(C)\C=C\C=C(/C)C(=O)O [Crocetin] | 34% |  | % Inhibition ARAT (10 μm) (ARAT): 15%
CCCCCCCC/C=C\CCCCCCCC1=NCCN1CCO [Oleyl Hydroxyethylimidazoline] |  |  | IC50 (TGase I): 30.2 µM
Cocoyl Monoethanolamide | 13% | 34% | 
CC(=O)C1(C)C2CC3C(C2)C31C (stereo not drawn) [Santalone] | 23% | 12% | 
CC1=C(/C=C/C(C)=C/C=C/C(C)=C/C(=O)O)C(C)(C)CCC1 [Retinoic acid, reference compound] |  |  | CRABP-II production (CRABP-II; 1 nM retinoid alone): 0.97+/−0.47; % as Control (CRABP-II; 1 nM retinoid alone): 335+/−162%; CRABP-II production (CRABP-II; 10 nM retinoid alone): 1.24+/−0.29; % as Control (CRABP-II; 10 nM retinoid alone): 428+/−101%
O=C1C[C@@H](c2ccc(O)cc2)Oc2cc(O)cc(O)c21 [Naringenin] | 33% |  | 
CC12CCC(C1)C(C)(C)C2O (stereo not drawn) [Fenchyl Alcohol] | 12% |  | 
O=c1c(O)c(-c2ccc(O)c(O)c2)oc2cc(O)cc(O)c12 [Quercetin] |  |  | % Inhibition Retinoic Acid (10 μM) [1]: 40%; % Inhibition Retinoic Acid (100 μM) [1]: 74%
c1ccc(-c2ccc(C(c3ccccc3)n3ccnc3)cc2)cc1 (stereo not drawn) [Bifonazole] |  |  | % Inhibition Retinoic Acid (10 μM) [1]: 89%; % Inhibition Retinoic Acid (100 μM) [1]: 100%
Clc1ccc(COC(Cn2ccnc2)c2ccc(Cl)cc2Cl)c(Cl)c1 (stereo not drawn) [Miconazole] |  |  | % Inhibition Retinoic Acid (10 μM) [1]: 74%; % Inhibition Retinoic Acid (100 μM) [1]: 86%
Hydroxyquinoline (Carbostyril) |  |  | IC50 (TGase I): 364 µM
CC(C)(C(=O)c1cccnc1)c1cccnc1 [2-Methyl-1,2-di-3-Pyridyl-1-Propane] |  |  | % Inhibition Retinoic Acid (100 μM) [1]: 47%
Santanol | 15% | 43% | 

Compound | % Inhibition ARAT (100 μm) (ARAT) | % Inhibition LRAT (100 μm) (LRAT) | also measured
CC(C)=CCC/C(C)=C/CC/C(C)=C/CC/C(C)=C/CO [Geranyl Geraniol] | 81% +/− 6 |  | % Inhibition ARAT (10 μm) (ARAT): 38% +/− 12
CC(=O)N1CCN(c2ccc(OCC3COC(Cn4ccnc4)(c4ccc(Cl)cc4Cl)O3)cc2)CC1 (stereo not drawn) [Ketoconazole] |  |  | % Inhibition Retinoic Acid (10 μM) [1]: 84%; % Inhibition Retinoic Acid (100 μM) [1]: 84%
CC(=O)c1cc2c(cc1C)C(C)(C)C(C)CC2(C)C (stereo not drawn) [Tonalid] | 50% |  | 
CCCCCCCCCCCC1=NCCN1CCO [Lauryl Hydroxyethylimidazoline] |  |  | IC50 (TGase I): 0.467 µM
CCCCC/C=C\C/C=C\CCCCCCCC(=O)OC/C=C(C)/C=C/C=C(C)/C=C/C1=C(C)CCCC1(C)C [Retinyl Linoleate] |  |  | CRABP-II production (CRABP-II; 100 nM retinoid alone): 0.52+/−0.3; % as Control (CRABP-II; 100 nM retinoid alone): 181+/−110%
CC=CC(=O)C1CCC(C)(C)C=C1C (stereo not drawn) [Isodamascone] | 80% | 92% | 
CC1=CC(C)C(CO)C(C)C1 (stereo not drawn) [Isocyclogeraniol] | 18% | 16% | 
C/C=C\C(=O)C1C(C)=CCCC1(C)C (stereo not drawn) [Alpha-Damascone] |  | 98% +/− 1 | IC50 (TGase I): 335 µM; % Inhibition LRAT (10 μm) (LRAT): 87% +/− 6
CCCCCCCCCCCCC/C=C/[C@@H](O)[C@H](CO)NC(=O)CCCCC [Hexanoyl Sphingosine] |  | 37% +/− 9 | IC50 (TGase I): 99.9 µM
CCCC(O)CCC1C(C)CCCC1(C)C (stereo not drawn) [Timberol] |  | 33% | 
CCCCC/C=C\C/C=C\CCCCCCCC(=O)NCCO [Linoleoyl Monoethanolamide] |  |  | IC50 (TGase I): 16.1 µM
Clc1ccc(COC(Cn2ccnc2)c2ccc(Cl)cc2Cl)cc1 (stereo not drawn) [Econazole] |  |  | % Inhibition Retinoic Acid (10 μM) [1]: 88%; % Inhibition Retinoic Acid (100 μM) [1]: 100%
CC(=O)/C(C)=C/C1C(C)=CCCC1(C)C (stereo not drawn) [Gamma-Methyl Ionone] |  | 38% | 
Glycerol-PCA-Oleate | 41% +/− 6 | 58% +/− 2 | 
CCCCCCCCCCC(O)C(=O)NCCO (stereo not drawn) [Hydroxyethyl-2-Hydroxy-C12 Amide] |  | 35% | IC50 (TGase I): 32.9 µM
CC(C)(C)C(=O)C(Oc1ccc(Cl)cc1)n1ccnc1 (stereo not drawn) [Climbazole] |  |  | % Inhibition Retinoic Acid (10 μM) [1]: 80%; % Inhibition Retinoic Acid (100 μM) [1]: 92%
CCOC(=O)C1=C(C)C=CCC1(C)C [Ethyl Saffranate] |  | 49% | 
Isobutyl Ionone | 8% | 45% | 
Coco Hydroxyethylimidazoline |  | 68% | 

Compound | % Inhibition ARAT (100 μm) (ARAT) | % Inhibition LRAT (100 μm) (LRAT) | also measured
CC(=O)CCC1C(C)=CCCC1(C)C (stereo not drawn) [Dihydro Alpha-Ionone] | 13% | 18% | 
CCCCCCCCCCCCCC(=O)N(C)CC(=O)O [Myristoyl Sarcosine] | 41% +/− 14 |  | 
CC(C)(O)CCCC1=CCC(C=O)CC1 (stereo not drawn) [Lyral] | 76% |  | 
CCCCCCCCCCCCCCCC(=O)OC/C=C(C)/C=C/C=C(C)/C=C/C1=C(C)CCCC1(C)C [Retinyl Palmitate] |  |  | CRABP-II production (CRABP-II; 100 nM retinoid alone): 1.26+/−0.51; % as Control (CRABP-II; 100 nM retinoid alone): 434+/−177%
CCCCC/C=C\C/C=C\CCCCCCCC(=O)NCCCN(C)C [Linoleamidopropyl Dimethylamine] | 69% +/− 18 |  | 
Coco Trimethylammonium Cl- | 27% |  | 
CCCCCCCC(=O)OC[C@H](COP(=O)(O)OCCN)OC(=O)CCCCCCC [Dioctylphosphatidyl Ethanolamine] |  | 17% +/− 17 | % Inhibition ARAT (10 μm) (ARAT): 23%; % Inhibition LRAT (10 μm) (LRAT): 0%
CC(C)=CCCC(C)CCO (stereo not drawn) [Citronellol] | 30% |  | 
CC(=O)OC/C=C(C)/C=C/C=C(C)/C=C/C1=C(C)CCCC1(C)C [Retinyl Acetate] |  |  | CRABP-II production (CRABP-II; 100 nM retinoid alone): 0.60+/−0.32; % as Control (CRABP-II; 100 nM retinoid alone): 209+/−118%
CCCCCCCC/C=C\CCCCCCCC[N+](C)(C)CC(=O)[O-] [Oleyl Betaine] | 47% |  | IC50 (TGase I): 28 µM
CCCCCC(N)=O [Hexanoamide] | 20% |  | 
CCN(CC)CC(=O)Nc1c(C)cccc1C [Lidocaine, reference compound] | 12% |  | 
CCCCC/C=C/C/C=C/CCCCCCCC(=O)NC(C)c1ccccc1 (stereo not drawn) [Melinamide, reference compound] | 64% +/− 15 |  | 
C/C=C/C(=O)C1=C(C)CCCC1(C)C [Beta-Damascone] |  | 92% | % Inhibition LRAT (10 μm) (LRAT): 52%
Clc1ccccc1C(c1ccccc1)(c1ccccc1)n1ccnc1 [Clotrimazole] |  |  | % Inhibition Retinoic Acid (10 μM) [1]: 76%
O=c1c2cccc3cccc(c32)c2nc3ccccc3n12 [(7H-Benzimidazo[2,1-a]Benz[de]-Isoquinolin-7-one] |  |  | IC50 (TGase I): 0.859 µM
C/C=C/C(=O)C1=C(C)C=CCC1(C)C [Damascenone] |  | 79% | % Inhibition LRAT (10 μm) (LRAT): 29%
C/C=C/C(=O)C1C(C)C=CCC1(C)C (stereo not drawn) [Delta-Damascone] |  | 95% | % Inhibition LRAT (10 μm) (LRAT): 64%
Castor Oil MEA |  |  | IC50 (TGase I): 32.5 µM
